The test system of one data set is HEK293T cells. Put plainly: in vitro. To be noted: human, 72 h. The class given is cell-based. Put shortly: (§1)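 Cells were seeded and compound medium added after 48 h, then incubated 72 h at 37 °C, 5% CO2. Viability was measured by MTT (4 h), then solubilization and absorbance at 620 nm after a further 3 h. DMSO-only wells were taken as 100% viable.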
A short description of data set [1]: in vitro. The class given is cell-based. The conditions noted are these: human. An outline of the steps:
as §1

Data set [2] deals with influenza virus A/WSN/33 (H1N1). Put plainly: microbe, parasite or virus in culture. The class given is cell-based. To be noted: MDCK, 72 h; for inhibition at 12.5 µM / inhibition at 25 µM / inhibition at 50 µM / inhibition at 100 µM: H1N1|WSN, read-out: Antiviral activity in CPE assay; for EC50: read-out: Cytopathic Effect Assay (A/WSN/33, H1N1) EC50.
A short description of data set [3]: in vitro. The conditions noted are these: dog. The class given is cell-based, canine. Put shortly:
as §1

The subject of another data set is MDCK cells. Kind of data set: in vitro. The conditions noted are these: dog, 72 h. The class given is cell-based, canine. Put shortly:
as §1

A further data set concerns influenza B virus. Kind of data set: Plaque inhibition assay in MDCK cells. The data set is classed as cell-based.
Data set [4] has as its target ribonucleoprotein (RNP) of influenza virus (Influenza A virus, UniProt P15659). Put plainly: cell-based. The conditions noted are these: HEK-293T, read-out: RNP Reconstitution Assay Inhibition Rate; for inhibition at 100 µM: concentration 100 µM.
The subject of data set [5] is influenza virus A/WSN/33 (H1N1). Kind of data set: Plaque inhibition assay in MDCK cells. The class given is cell-based. The conditions noted are these: for IC50: MDCK cells; for inhibition at 100 µM: concentration 100 µM.
Another data set relates to A/PR/8 (H1N1). Put plainly: Plaque inhibition assay in MDCK cells. The class given is cell-based. To be noted: Influenza A virus.
In a further data set the test system is A/HK/68 (H3N2). Put plainly: Plaque inhibition assay in MDCK cells. The class given is cell-based. To be noted: Influenza A virus.
In another data set the test system is A/WSN/33, H1N1. Details: method as in PMID 25333287. To be noted: cited from earlier work.
Where [6] appears, read: MDCK, read-out: Plaque Inhibition Assay (A/WSN/33, H1N1) Inhibition Rate.

These results are taken from article PMC9181126, “Design, Synthesis, Molecular Docking Analysis and Biological Evaluations of 4-[(Quinolin-4-yl)amino]benzamide Derivatives as Novel Anti-Influenza Virus Agents” (International Journal of Molecular Sciences, 2022).

As to `COc1ccccc1OCCNC(=O)c1ccc(Nc2ccnc3cc(C(F)(F)F)ccc23)cc1` [Compound G07, N-[2-(2-Methoxyphenoxy)ethyl]-4-{[7-(trifluoromethyl)quinolin-4-yl]amino}benzamide], the “HEK293T cells survival rate” value with HEK293T cells (3.125 µmol·L−1) is given as 106.60±2.14%; with HEK293T cells (6.25 µmol·L−1), 97.91±1.23%; with HEK293T cells (12.5 µmol·L−1) it was 91.58±3.34%; in the data set on HEK293T cells (25 µmol·L−1), 87.01±2.19%; with HEK293T cells (50 µmol·L−1), 90.17±2.90%; in the data set on HEK293T cells (100 µmol·L−1), 81.39±7.21%. Further, the CC50 at 72 h in “in vitro [1]” and in the data set “in vitro [3]” was > 100 µM throughout. Besides, the inhibition at 12.5 µM in data set [2] stood at 61.4 ± 6.86%. Moreover, in [2], the inhibition at 25 µM stood at 78.2 ± 8.28%. The inhibition at 50 µM in data set [2] was 107 ± 2.43%. The figures for the inhibition at 100 µM in data set [2], in data set [4] and in [5] (setting [6]) were 112 ± 4.3%, 80.7% and 95.9%, respectively. The EC50 in [2] came out at 11.4 ± 1.89 µM. In addition, the “MDCK cells survival rate” value was determined as 140.55±9.82% with MDCK cells (12.5 µmol·L−1), 115.87±11.06% with MDCK cells (25 µmol·L−1), 256.24±17.89% in the data set with MDCK cells (50 µmol·L−1) and 115.75±5.12% in the data set on MDCK cells (100 µmol·L−1). For the same molecule, the concentration for half-maximal inhibition (IC50) was determined as 11 ± 1.16 µM with influenza B virus, 0.23 ± 0.15 µM in [5], 11.4 ± 2.38 µM with A/PR/8 (H1N1) and 7.51 ± 1.76 µM in the data set on A/HK/68 (H3N2).
Regarding `COc1ccccc1OCCNC(=O)c1ccc(Nc2ccnc3c(C)cccc23)cc1` [Compound G20, N-[2-(2-Methoxyphenoxy)ethyl]-4-[(8-methylquinolin-4-yl)amino]benzamide], the melting point lay within 150.2 to 151.7 °C. Also, the “HEK293T cells survival rate” value in the data set on HEK293T cells (3.125 µmol·L−1) is listed as 96.66±8.01%. Besides, the “HEK293T cells survival rate” value with HEK293T cells (6.25 µmol·L−1) is 91.48±3.65%. Besides, in the data set on HEK293T cells (12.5 µmol·L−1), the “HEK293T cells survival rate” value came out at 94.07±9.07%. In addition, the “HEK293T cells survival rate” value with HEK293T cells (25 µmol·L−1) is 87.46±21.36%. The “HEK293T cells survival rate” value in the data set on HEK293T cells (50 µmol·L−1) came out at 80.21±1.35%. Besides, in the data set with HEK293T cells (100 µmol·L−1), the “HEK293T cells survival rate” value is on record as 60.29±0.35%. Moreover, the CC50 at 72 h in “in vitro [1]” was > 100 µM. In data set [2], the inhibition at 12.5 µM turned out to be 72 ± 6.36%, the inhibition at 25 µM is 28.6 ± 1.61%, the inhibition at 50 µM was 30.9 ± 0.88% and the inhibition at 100 µM was found to be 31.1 ± 0.49%. The EC50 in data set [2] was > 100 µM. Moreover, in the data set “in vitro [3]”, the half-maximal cytotoxic concentration (CC50) at 72 h was < 10 µM. Also, in the data set on MDCK cells (12.5 µmol·L−1), the “MDCK cells survival rate” value is on record as 45.97±9.1%. In addition, the “MDCK cells survival rate” value in the data set on MDCK cells (25 µmol·L−1) is reported as 8.61±0.42%. For the same molecule, the “MDCK cells survival rate” value in the data set on MDCK cells (50 µmol·L−1) is given as 8.88±0.51%. The “MDCK cells survival rate” value in the data set on MDCK cells (100 µmol·L−1) was 8.66±0.17%. In addition, the inhibition at 12.5 µM in data set [4] (concentration 12.5 µM) stood at 6.69%. For the same molecule, in data set [5] (MDCK, concentration 6 µM, read-out: Plaque Inhibition Assay (A/WSN/33, H1N1) Inhibition Rate), the inhibition at 6 µM came out at 74.3%.
On to `COc1ccccc1OCCNC(=O)c1ccc(Nc2ccnc3cc(OC(F)(F)F)ccc23)cc1` [Compound G22, N-[2-(2-Methoxyphenoxy)ethyl]-4-{[7-(trifluoromethoxy)quinolin-4-yl]amino}benzamide], for which the melting point lay within 229.5 to 230.7 °C. Besides, the “HEK293T cells survival rate” value in the data set with HEK293T cells (3.125 µmol·L−1) is listed as 117.25±6.52%. The “HEK293T cells survival rate” value in the data set on HEK293T cells (6.25 µmol·L−1) was 103.91±6.77%. In addition, in the data set on HEK293T cells (12.5 µmol·L−1), the “HEK293T cells survival rate” value was found to be 91.65±2.90%. Also, the “HEK293T cells survival rate” value with HEK293T cells (25 µmol·L−1) is recorded as 89.97±4.08%. Also, in the data set with HEK293T cells (50 µmol·L−1), the “HEK293T cells survival rate” value amounted to 88.83±5.80%. In addition, the “HEK293T cells survival rate” value in the data set with HEK293T cells (100 µmol·L−1) was determined as 86.07±5.65%. In addition, the 50% cytotoxic concentration (CC50) at 72 h in “in vitro [1]” was > 100 µM. Besides, in [2], the inhibition at 12.5 µM stood at 112 ± 6.15%, the inhibition at 25 µM was 108 ± 8.75%, the inhibition at 50 µM was determined as 106 ± 5.94% and the inhibition at 100 µM worked out at 97.4 ± 10.2%. For the same molecule, the EC50 in [2] is < 10 µM. Moreover, the cytotoxic concentration (CC50) at 72 h in the data set “in vitro [3]” was > 100 µM. The “MDCK cells survival rate” value in the data set with MDCK cells (12.5 µmol·L−1) worked out at 95.78±2.47%. Besides, the “MDCK cells survival rate” value in the data set with MDCK cells (25 µmol·L−1) was 99.56±3.73%. Besides, in the data set with MDCK cells (50 µmol·L−1), the “MDCK cells survival rate” value is 104.22±9.18%. The “MDCK cells survival rate” value with MDCK cells (100 µmol·L−1) is 118.12±6.49%. Moreover, in data set [4], the inhibition at 100 µM is 43.9%. The inhibition at 100 µM in [5] (setting [6]) came out at 20%.
For `COc1ccccc1OCCNC(=O)c1ccc(Nc2ccnc3cc([N+](=O)[O-])ccc23)cc1` [Compound G23, N-[2-(2-Methoxyphenoxy)ethyl]-4-[(7-nitroquinolin-4-yl)amino]benzamide], the melting point lay in the range of 217 to 218.5 °C. Further, in the data set with HEK293T cells (3.125 µmol·L−1), the “HEK293T cells survival rate” value worked out at 93.57±3.31%. Further, the “HEK293T cells survival rate” value with HEK293T cells (6.25 µmol·L−1) was found to be 96.34±4.31%. Moreover, the “HEK293T cells survival rate” value with HEK293T cells (12.5 µmol·L−1) stood at 95.29±3.05%. Also, the “HEK293T cells survival rate” value with HEK293T cells (25 µmol·L−1) is 89.02±3.47%. Further, the “HEK293T cells survival rate” value in the data set with HEK293T cells (50 µmol·L−1) stood at 96.62±7.74%. Further, the “HEK293T cells survival rate” value in the data set on HEK293T cells (100 µmol·L−1) came out at 88.11±4.02%. In the data set “in vitro [1]”, the 50% cytotoxic concentration (CC50) at 72 h was > 100 µM. Further, in [2], the inhibition at 12.5 µM amounted to 146 ± 3.38%, the inhibition at 25 µM came to 143 ± 6.11%, the inhibition at 50 µM is 119.8 ± 0.68% and the inhibition at 100 µM came out at 119 ± 7.71%. Further, the EC50 in data set [2] is < 10 µM. Moreover, the 50% cytotoxic concentration (CC50) at 72 h in the data set “in vitro [3]” was > 100 µM. The “MDCK cells survival rate” value with MDCK cells (12.5 µmol·L−1) came out at 101.22±6.39%. In the data set with MDCK cells (25 µmol·L−1), the “MDCK cells survival rate” value is 106.22±9.35%. In the data set with MDCK cells (50 µmol·L−1), the “MDCK cells survival rate” value came out at 100.33±3.53%. Moreover, the “MDCK cells survival rate” value in the data set with MDCK cells (100 µmol·L−1) came to 91.28±3.45%. Also, in data set [4], the inhibition at 100 µM was determined as 56.6%. The inhibition at 100 µM in [5] (setting [6]) was 77.9%.
Regarding `COc1ccccc1OCCNC(=O)c1ccc(Nc2ccnc3ccc(C(F)(F)F)cc23)cc1` [Compound G26, N-[2-(2-Methoxyphenoxy)ethyl]-4-{[6-(trifluoromethyl)quinolin-4-yl]amino}benzamide], the melting point fell in the range of 225.3 to 227.3 °C. Moreover, the “HEK293T cells survival rate” value with HEK293T cells (3.125 µmol·L−1) is listed as 104.54±2.55%. For the same molecule, the “HEK293T cells survival rate” value in the data set on HEK293T cells (6.25 µmol·L−1) came to 83.92±2.40%. In addition, in the data set with HEK293T cells (12.5 µmol·L−1), the “HEK293T cells survival rate” value amounted to 78.70±2.98%. Also, in the data set with HEK293T cells (25 µmol·L−1), the “HEK293T cells survival rate” value was 74.64±5.24%. The “HEK293T cells survival rate” value in the data set on HEK293T cells (50 µmol·L−1) stood at 72.10±1.56%. Also, in the data set with HEK293T cells (100 µmol·L−1), the “HEK293T cells survival rate” value worked out at 70.01±9.07%. Also, the CC50 at 72 h in “in vitro [1]” was > 100 µM. Besides, in data set [2], the inhibition at 12.5 µM was determined as 15.7 ± 1.06%, the inhibition at 25 µM is 16.8 ± 2.11%, the inhibition at 50 µM came out at 36.8 ± 1.79% and the inhibition at 100 µM came to 49.7 ± 6.09%. In [2], the EC50 was > 100 µM. Besides, the CC50 at 72 h in “in vitro [3]” is > 100 µM. Also, the “MDCK cells survival rate” value in the data set on MDCK cells (12.5 µmol·L−1) is 103.03±1.26%. Moreover, the “MDCK cells survival rate” value in the data set with MDCK cells (25 µmol·L−1) was found to be 105.52±6.56%. Also, the “MDCK cells survival rate” value with MDCK cells (50 µmol·L−1) is 122.08±7.85%. Besides, in the data set with MDCK cells (100 µmol·L−1), the “MDCK cells survival rate” value is 133.91±11.97%. The inhibition at 100 µM in data set [4] is 22.6%. In addition, the inhibition at 100 µM in data set [5] (setting [6]) is < 10%.
For `NC12CC3CC(CC(C3)C1)C2` [amantadine, reference compound], the IC50 with influenza B virus is > 100 µM; in data set [5], > 100 µM; in the data set with A/PR/8 (H1N1), 64.2 ± 7.21 µM; in the data set with A/HK/68 (H3N2) it was 2.22 ± 0.57 µM.
With `CCN(CC)Cc1cc(Nc2ccnc3cc(Cl)ccc23)ccc1O` [amodiaquine], the EC50 in the data set on A/WSN/33, H1N1 was 6.3 µM.
